This passage reports Ki results from paper PMC5190053, “Blocking the PAH2 domain of Sin3A inhibits tumorigenesis and confers retinoid sensitivity in triple negative breast cancer” (Oncotarget, 2016).

This assay deals with T1, mSin3A PAH2 domain; SIN3A PAH2; Sin3A.
T1 construct: PAH2 (paired amphipathic helix 2) domain only
The experiment in a line: fluorescence anisotropy competition assay. It counts as binding, Mus musculus. To be noted: conditions cited to earlier work.

For `O=C(O)c1cccc2c1NC(c1cccc(Cl)c1Cl)C1CC=CC21` (stereo not shown) [C16, 4-(2,3-Dichlorophenyl)-3a,4,5,9b-tetrahydro-3H-cyclopenta[c]quinoline-6-carboxylic acid], the inhibition constant (Ki) was determined as 23.6 µM.

As usually defined, the Ki is a measure of affinity in units of concentration, obtained from inhibition or displacement. Lower therefore signals higher affinity.
